Test results: patent US10473647B1, “Peptides for use in treatment and diagnosis of type 1 diabetes” (ImmusanT, Inc., priority 2014, dated 2019)
Non-standard residues stand in square brackets, D forms with d. pGlu = O=C1CC[C@@H](C(=O)O)N1

Tests used:
Type in all cases: cell-based, human
[1] = test system: whole blood from subjects with T1D and Celiac disease; assay: Whole blood cytokine release assay, IL-2 (MAGPIX), Example 1; settings: for Whole blood IL-2 release / Whole blood IL-2 release, fold-change over medium only: 10 uM; for IL-2 fold-change / IL-2 fold-change (preproinsulin peptides): individual 17mer 20 μg/mL, blood 6 days after commencing oral gluten challenge
[2] = test system: whole blood from subjects with T1D and Celiac disease; assay: Whole blood cytokine release assay, IFN-γ (MAGPIX), Example 1; settings: for Whole blood IFNg release / Whole blood IFNg release, fold-change over medium only: 10 uM; for IFN-g fold-change / IFN-g fold-change (preproinsulin peptides): individual 17mer 20 μg/mL, blood 6 days after commencing oral gluten challenge
[3] = test system: whole blood from subjects with T1D and Celiac disease; assay: Whole blood cytokine release assay, IP-10 (MAGPIX), Example 1; settings: for Whole blood IP-10 release / Whole blood IP-10 release, fold-change over medium only: 10 uM
[4] = subject 1, day 0 since oral challenge
[5] = subject 1, day 6 since oral challenge
[6] = subject 2, day 0 since oral challenge
[7] = subject 2, day 6 since oral challenge
[8] = subject 6, day 0 since oral challenge
[9] = subject 6, day 6 since oral challenge
[10] = subject 7, day 0 since oral challenge
[11] = subject 7, day 6 since oral challenge
[12] = Subject 1, individual 17mer 20 μg/mL, blood 6 days after commencing oral gluten challenge
[13] = Subject 2, individual 17mer 20 μg/mL, blood 6 days after commencing oral gluten challenge
[14] = Subject 6, individual 17mer 20 μg/mL, blood 6 days after commencing oral gluten challenge
[15] = Subject 7, individual 17mer 20 μg/mL, blood 6 days after commencing oral gluten challenge

(pE)QPFPQPEQPFPWQP-NH2 ([pGlu]QPFPQPEQPFPWQP-NH2; SMILES NC(=O)CC[C@H](NC(=O)[C@H](Cc1c[nH]c2ccccc12)NC(=O)[C@@H]1CCCN1C(=O)[C@H](Cc1ccccc1)NC(=O)[C@@H]1CCCN1C(=O)[C@H](CCC(N)=O)NC(=O)[C@H](CCC(=O)O)NC(=O)[C@@H]1CCCN1C(=O)[C@H](CCC(N)=O)NC(=O)[C@@H]1CCCN1C(=O)[C@H](Cc1ccccc1)NC(=O)[C@@H]1CCCN1C(=O)[C@H](CCC(N)=O)NC(=O)[C@@H]1CCC(=O)N1)C(=O)N1CCC[C@H]1C(N)=O) [SEQ ID NO: 43, gluten peptide, reference compound]
Whole blood IL-2 release [1, 4]: 3.2 pg/mL
Whole blood IL-2 release, fold-change over medium only [1, 4]: 1.00
Whole blood IL-2 release [1, 5]: 3.2 pg/mL
Whole blood IL-2 release, fold-change over medium only [1, 5]: 1.00
Whole blood IL-2 release [1, 6]: 3.2 pg/mL
Whole blood IL-2 release, fold-change over medium only [1, 6]: 1.00
Whole blood IL-2 release [1, 7]: 5.2 pg/mL
Whole blood IL-2 release, fold-change over medium only [1, 7]: 1.61
Whole blood IL-2 release [1, 8]: 17.9 pg/mL
Whole blood IL-2 release, fold-change over medium only [1, 8]: 3.62
Whole blood IL-2 release [1, 9]: 115. 9 pg/mL
Whole blood IL-2 release, fold-change over medium only [1, 9]: 27.33
Whole blood IL-2 release [1, 10]: 41.4 pg/mL
Whole blood IL-2 release, fold-change over medium only [1, 10]: 0.66
Whole blood IL-2 release [1, 11]: 55.1 pg/mL
Whole blood IL-2 release, fold-change over medium only [1, 11]: 1.31
Whole blood IFNg release [2, 4]: 60 pg/mL
Whole blood IFNg release, fold-change over medium only [2, 4]: 1.09
Whole blood IFNg release [2, 5]: 62 pg/mL
Whole blood IFNg release, fold-change over medium only [2, 5]: 0.95
Whole blood IFNg release [2, 6]: 4.5 pg/mL
Whole blood IFNg release, fold-change over medium only [2, 6]: 1.19
Whole blood IFNg release [2, 7]: 6.4 pg/mL
Whole blood IFNg release, fold-change over medium only [2, 7]: 1.32
Whole blood IFNg release [2, 8]: 94 pg/mL
Whole blood IFNg release, fold-change over medium only [2, 8]: 0.98
Whole blood IFNg release [2, 9]: 258 pg/mL
Whole blood IFNg release, fold-change over medium only [2, 9]: 2.63
Whole blood IFNg release [2, 10]: 158 pg/mL
Whole blood IFNg release, fold-change over medium only [2, 10]: 0.66
Whole blood IFNg release [2, 11]: 150 pg/mL
Whole blood IFNg release, fold-change over medium only [2, 11]: 1.00
Whole blood IP-10 release [3, 4]: 218 pg/mL
Whole blood IP-10 release, fold-change over medium only [3, 4]: 0.82
Whole blood IP-10 release [3, 5]: 501 pg/mL
Whole blood IP-10 release, fold-change over medium only [3, 5]: 1.49
Whole blood IP-10 release [3, 6]: 376 pg/mL
Whole blood IP-10 release, fold-change over medium only [3, 6]: 1.42
Whole blood IP-10 release [3, 7]: 1140 pg/mL
Whole blood IP-10 release, fold-change over medium only [3, 7]: 3.65
Whole blood IP-10 release [3, 8]: 1934 pg/mL
Whole blood IP-10 release, fold-change over medium only [3, 8]: 6.98
Whole blood IP-10 release [3, 9]: 10000 pg/mL
Whole blood IP-10 release, fold-change over medium only [3, 9]: 49.76
Whole blood IP-10 release [3, 10]: 900 pg/mL
Whole blood IP-10 release, fold-change over medium only [3, 10]: 1.21
Whole blood IP-10 release [3, 11]: 10000 pg/mL
Whole blood IP-10 release, fold-change over medium only [3, 11]: 11.21

CGSHLVEALYLVCGERG [SEQ ID NO: 53]
IL-2 fold-change ([1]; Subject 1): 1.00
IL-2 fold-change (preproinsulin peptides) ([1]; Subject 1): 1.00 fold
IL-2 fold-change ([1]; Subject 2): 1.00
IL-2 fold-change (preproinsulin peptides) ([1]; Subject 2): 1.00 fold
IL-2 fold-change ([1]; Subject 6): 1.08
IL-2 fold-change (preproinsulin peptides) ([1]; Subject 6): 1.08 fold
IL-2 fold-change ([1]; Subject 7): 0.56
IL-2 fold-change (preproinsulin peptides) ([1]; Subject 7): 0.56 fold
IFN-g fold-change ([2]; Subject 1): 0.99
IFN-g fold-change (preproinsulin peptides) ([2]; Subject 1): 0.99 fold
IFN-g fold-change ([2]; Subject 2): 1.01
IFN-g fold-change (preproinsulin peptides) ([2]; Subject 2): 1.01 fold
IFN-g fold-change ([2]; Subject 6): 0.74
IFN-g fold-change (preproinsulin peptides) ([2]; Subject 6): 0.74 fold
IFN-g fold-change ([2]; Subject 7): 0.69
IFN-g fold-change (preproinsulin peptides) ([2]; Subject 7): 0.69 fold
IP-10 fold-change [3, 12]: 1.13
IP-10 fold-change (preproinsulin peptides) [3, 12]: 1.13 fold
IP-10 fold-change [3, 13]: 1.50
IP-10 fold-change (preproinsulin peptides) [3, 13]: 1.50 fold
IP-10 fold-change [3, 14]: 3.30
IP-10 fold-change (preproinsulin peptides) [3, 14]: 3.30 fold
IP-10 fold-change [3, 15]: 0.83
IP-10 fold-change (preproinsulin peptides) [3, 15]: 0.83 fold
subjects with elevated whole blood IP-10 release (2-fold greater than medium alone) ([3]; individual 17mer 20 μg/mL, four subjects, blood 6 days after commencing oral gluten challenge): more weakly

EAEVGQVELGGGPGAGS [SEQ ID NO: 56]
IL-2 fold-change ([1]; Subject 1): 1.00
IL-2 fold-change (preproinsulin peptides) ([1]; Subject 1): 1.00 fold
IL-2 fold-change ([1]; Subject 2): 1.00
IL-2 fold-change (preproinsulin peptides) ([1]; Subject 2): 1.00 fold
IL-2 fold-change ([1]; Subject 6): 1.00
IL-2 fold-change (preproinsulin peptides) ([1]; Subject 6): 1.00 fold
IL-2 fold-change ([1]; Subject 7): 4.83
IL-2 fold-change (preproinsulin peptides) ([1]; Subject 7): 4.83 fold
IFN-g fold-change ([2]; Subject 1): 1.07
IFN-g fold-change (preproinsulin peptides) ([2]; Subject 1): 1.07 fold
IFN-g fold-change ([2]; Subject 2): 0.82
IFN-g fold-change (preproinsulin peptides) ([2]; Subject 2): 0.82 fold
IFN-g fold-change ([2]; Subject 6): 0.97
IFN-g fold-change (preproinsulin peptides) ([2]; Subject 6): 0.97 fold
IFN-g fold-change ([2]; Subject 7): 1.55
IFN-g fold-change (preproinsulin peptides) ([2]; Subject 7): 1.55 fold
IP-10 fold-change [3, 12]: 0.96
IP-10 fold-change (preproinsulin peptides) [3, 12]: 0.96 fold
IP-10 fold-change [3, 13]: 1.05
IP-10 fold-change (preproinsulin peptides) [3, 13]: 1.05 fold
IP-10 fold-change [3, 14]: 0.91
IP-10 fold-change (preproinsulin peptides) [3, 14]: 0.91 fold
IP-10 fold-change [3, 15]: 1.43
IP-10 fold-change (preproinsulin peptides) [3, 15]: 1.43 fold

EDLQVGEVELGGGPGAG [SEQ ID NO: 50]
IL-2 fold-change ([1]; Subject 1): 1.00
IL-2 fold-change (preproinsulin peptides) ([1]; Subject 1): 1.00 fold
IL-2 fold-change ([1]; Subject 2): 1.00
IL-2 fold-change (preproinsulin peptides) ([1]; Subject 2): 1.00 fold
IL-2 fold-change ([1]; Subject 6): 1.00
IL-2 fold-change (preproinsulin peptides) ([1]; Subject 6): 1.00 fold
IL-2 fold-change ([1]; Subject 7): 7.35
IL-2 fold-change (preproinsulin peptides) ([1]; Subject 7): 7.35 fold
IFN-g fold-change ([2]; Subject 1): 0.93
IFN-g fold-change (preproinsulin peptides) ([2]; Subject 1): 0.93 fold
IFN-g fold-change ([2]; Subject 2): 1.01
IFN-g fold-change (preproinsulin peptides) ([2]; Subject 2): 1.01 fold
IFN-g fold-change ([2]; Subject 6): 0.71
IFN-g fold-change (preproinsulin peptides) ([2]; Subject 6): 0.71 fold
IFN-g fold-change ([2]; Subject 7): 2.06
IFN-g fold-change (preproinsulin peptides) ([2]; Subject 7): 2.06 fold
IP-10 fold-change [3, 12]: 1.14
IP-10 fold-change (preproinsulin peptides) [3, 12]: 1.14 fold
IP-10 fold-change [3, 13]: 0.96
IP-10 fold-change (preproinsulin peptides) [3, 13]: 0.96 fold
IP-10 fold-change [3, 14]: 0.87
IP-10 fold-change (preproinsulin peptides) [3, 14]: 0.87 fold
IP-10 fold-change [3, 15]: 1.61
IP-10 fold-change (preproinsulin peptides) [3, 15]: 1.61 fold
